# Experimental data reported in US20110020462A1, “NEW USE OF HISTONE DEACETYLASE INHIBITORS IN CHANGING MRJP3 PROTEIN IN ROYAL JELLY” (NATUREWISE BIOTECH & MEDICALS CORPORATION, priority 2009, published 2011).
# Key:
# MRJP3 = test: Ratio of 68 to 64 kDa MRJP3 protein in royal jelly (SDS-PAGE); assay type: in vivo, Apis mellifera
# Description: Beehives with the similar expression level of MRJP3 protein were selected for use, and two beehives were tested in each control or experimental group. On the first day, the honey originally contained in the beehives was removed by shaking, and the bees (Apis mellifera) were fed sugar water twice (normal sugar water for the control group and special sugar water for the experimental group) for two days. The special sugar water was a 10-fold dilution of the formulated sugar powder in water. On the third day, 1.5-day old larvae (which were the offspring of the same queen) were inserted into the beehives, and the bees were fed once (normal sugar water for the control group and special sugar water for the experimental group). After 24, 48, and 72 hrs, 20 larvae and the royal jelly in the cells of said 20 larvae were collected for qualitative, quantitative, and proteomic analyses.
# For qualitative analysis, royal jelly and sterilized water at a weight ratio of 1:10 was mixed for extraction. A particular amount of the proteins in the aqueous layer were removed for determination of protein concentration by Bradford dye-binding method (Bio-Rad protein assay, Bio-Rad Laboratories, Inc.). The absorption at 595 nm of the protein samples was determined by Elisa Reader (Bio-TEK). […]
# larvae of the queen bee = test: Growth (weight) of larvae of the queen bee fed royal jelly secreted by young worker bees fed the test substance in sugar water; assay type: in vivo, Apis mellifera
structure (smiles),measurement,setting,value
"CC(C)=CCC/C(C)=C/Cc1c(O)cc2c(c1O)C(=O)C[C@@H](c1ccc(O)c(O)c1)O2 [Propolin C, propolin C]",protein components of the royal jelly secreted by young worker bees,MRJP3; 50 to 100 mg/kg,significantly changed
same,larva weight increase,"larvae of the queen bee; Example 4, 100 mg/kg, period of 48 to 72 hours, control around 3.58 fold",around 6.30 fold
same,Average weight of each larva,"larvae of the queen bee; Table 5, 50 mg/kg, 24 h, control 3.52",2.40 mg
same,Average weight of each larva,"larvae of the queen bee; Table 5, 50 mg/kg, 48 h, control 13.45",15.2 mg
same,Average weight of each larva,"larvae of the queen bee; Table 5, 50 mg/kg, 72 h, control 61.60",70.17 mg
same,Average weight of each larva,"larvae of the queen bee; Table 5, 100 mg/kg, 24 h, control 3.52",2.38 mg
same,Average weight of each larva,"larvae of the queen bee; Table 5, 100 mg/kg, 48 h, control 13.45",13.48 mg
same,Average weight of each larva,"larvae of the queen bee; Table 5, 100 mg/kg, 72 h, control 61.60",98.48 mg
"CC(C)=CCC/C(C)=C/Cc1c([C@@H]2CC(=O)c3c(cc(O)c(CC=C(C)C)c3O)O2)ccc(O)c1O [Propolin G, propolin G]",larva weight increase,"larvae of the queen bee; Example 5, 300 mg/kg, period of 24 to 48 hours, control around 1.60 fold",around 5.05 fold
same,larva weight increase,"larvae of the queen bee; Example 5, 300 mg/kg, period of 48 to 72 hours, control around 1.22 fold",around 5.79 fold
same,Average weight of each larva,"larvae of the queen bee; Table 6, 150 mg/kg, 24 h, control 5.23",5.73 mg
same,Average weight of each larva,"larvae of the queen bee; Table 6, 150 mg/kg, 48 h, control 13.57",54.2 mg
same,Average weight of each larva,"larvae of the queen bee; Table 6, 150 mg/kg, 72 h, control 30.07",156.63 mg
same,Average weight of each larva,"larvae of the queen bee; Table 6, 300 mg/kg, 24 h, control 5.23",3.93 mg
same,Average weight of each larva,"larvae of the queen bee; Table 6, 300 mg/kg, 48 h, control 13.57",23.80 mg
same,Average weight of each larva,"larvae of the queen bee; Table 6, 300 mg/kg, 72 h, control 30.07",161.73 mg
same,Average weight of each larva,"larvae of the queen bee; Table 6, 600 mg/kg, 24 h, control 5.23",2.70 mg
same,Average weight of each larva,"larvae of the queen bee; Table 6, 600 mg/kg, 48 h, control 13.57",13.67 mg
same,Average weight of each larva,"larvae of the queen bee; Table 6, 600 mg/kg, 72 h, control 30.07",85.67 mg
same,Average weight of each larva,"larvae of the queen bee; Table 8, positive control 150 mg/kg, 24 h, control 1.9",3.6 mg
same,Average weight of each larva,"larvae of the queen bee; Table 8, positive control 150 mg/kg, 48 h, control 13.3",41.2 mg
same,Average weight of each larva,"larvae of the queen bee; Table 8, positive control 150 mg/kg, 72 h, control 38.4",178.6 mg
"O=C(CCCCCCC(=O)Nc1ccccc1)NO [SAHA, suberoylanilide hydroxamide acid, reference compound]",ratio of the protein components of the royal jelly secreted by young worker bees,MRJP3; 5 to 15 mg/kg,significantly changed
same,Average weight of each larva,"larvae of the queen bee; Table 8, 5 mg/kg, 24 h, control 1.9",4.0 mg
same,Average weight of each larva,"larvae of the queen bee; Table 8, 5 mg/kg, 48 h, control 13.3",28.2 mg
same,Average weight of each larva,"larvae of the queen bee; Table 8, 5 mg/kg, 72 h, control 38.4",149.3 mg
same,Average weight of each larva,"larvae of the queen bee; Table 8, 15 mg/kg, 24 h, control 1.9",7.3 mg
same,Average weight of each larva,"larvae of the queen bee; Table 8, 15 mg/kg, 48 h, control 13.3",41.0 mg
same,Average weight of each larva,"larvae of the queen bee; Table 8, 15 mg/kg, 72 h, control 38.4",149.2 mg
